The values below come from ChEMBL document CHEMBL5137037, “Phage Display Selected Cyclic Peptide Inhibitors of Kallikrein-Related Peptidases 5 and 7 and Their In Vivo Delivery to the Skin” (J Med Chem, 2022).

The structures appear in SMILES notation. Numbered stars: 1 amine (or outer) side, 2 acyl side, 3 side chain; on linkers, the order of the positions; unused ones are H or OH. Bridge positions count the residues as written; N and C are the ends. Peptide text beside a SMILES is read from it. * marks the point of attachment. Pyridine(2,6-diCH2) = c1cc(C[*:1])nc(C[*:2])c1; Pyrrolidin1yl(2S-Ac) = CC(=O)[C@@H]1CCCN1*; CH2COCH2 = O=C(C[*:1])C[*:2]

Chain of Kallikrein-7 (P49862 whole entry, the tested form may be a part): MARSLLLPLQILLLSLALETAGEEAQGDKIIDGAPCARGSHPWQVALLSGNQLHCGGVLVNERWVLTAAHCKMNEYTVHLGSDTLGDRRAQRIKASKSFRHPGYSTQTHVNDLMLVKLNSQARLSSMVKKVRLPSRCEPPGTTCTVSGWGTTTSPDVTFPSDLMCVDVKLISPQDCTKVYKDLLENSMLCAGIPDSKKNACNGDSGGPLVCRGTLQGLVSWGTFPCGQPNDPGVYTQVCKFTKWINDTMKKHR

The first assay addresses Kallikrein-7 (Homo sapiens, UniProt P49862). The assay can be described thus: Inhibition of C-terminal poly-His-tagged human recombinant KLK7 (30 to 253 residues) transfected in CHO cells assessed as inhibition constant using KHLY-pNA as fluorogenic substrate incubated for 30 mins by fluorescence plate reader assay. The format is cell-based.
Settings: not given
`CCCCCCCCCCCCCCCC(=O)NCCCC[C@H](NC(=O)[C@H](CCC(=O)O)NC(=O)[C@H](Cc1ccc(O)cc1)NC(=O)[C@H](CCC(=O)O)NC(=O)COCCOCCNC(=O)c1ccc(-c2c3ccc(=O)cc-3oc3cc(O)ccc23)c(C(=O)O)c1)C(=O)N[C@@H](CCC(=O)O)C(=O)N[C@@H](Cc1ccc(O)cc1)C(=O)N[C@@H](CCC(=O)O)C(=O)NCCOCCOCC(=O)NCCCC[C@H](NC(=O)CNC(=O)[C@@H]1CSCC(=O)CSC[C@H](NC(=O)[C@@H]2CCCN2)C(=O)N[C@@H](CC(C)C)C(=O)N[C@@H](Cc2ccc(O)cc2)C(=O)N[C@@H](CCCC)C(=O)N[C@@H](C)C(=O)N[C@@H](CCCNC(=N)N)C(=O)N1)C(=O)NCC(N)=O`: the Ki was found to be 7 nM.

For `CC(C)C[C@@H]1NC(=O)[C@H](Cc2ccc(O)cc2)NC(=O)[C@H](CC(C)C)NC(=O)[C@@H](N)CSCc2cccc(n2)CSC[C@@H](C(=O)N[C@@H](CO)C(=O)O)NC(=O)[C@H](C)NC1=O` (H-CLYLACS-OH; linker 1-6 via Pyridine(2,6-diCH2)), the Ki amounted to 200 nM.

As for `CC(C)C[C@@H]1NC(=O)[C@@H](NC(=O)[C@@H](N)Cc2ccccc2)CSCC(=O)CSC[C@@H](C(=O)N[C@@H](CCC(N)=O)C(=O)N2CCC[C@H]2C(=O)N2CCC[C@H]2C(=O)N[C@@H](CCC(=O)O)C(=O)N[C@@H](C)C(=O)N[C@H]2CSCC(=O)CSC[C@@H](C(=O)N[C@@H](CCC(=O)O)C(=O)O)NC(=O)[C@H](CCC(N)=O)NC(=O)[C@H](CO)NC(=O)[C@@H]3CCCN3C2=O)NC(=O)[C@H](Cc2c[nH]c3ccccc23)NC(=O)[C@@H]2CCCN2C(=O)[C@H](Cc2c[nH]c3ccccc23)NC1=O` (H-FCLWPWCQPPEACPSQCE-OH; linker 2-7, 13-17 via CH2COCH2), the Ki is more than 1000 nM.

Consider `CC[C@H](C)[C@@H]1NC(=O)[C@H](CCCNC(=N)N)NC(=O)[C@H](Cc2ccc(O)cc2)NC(=O)[C@H](CC(C)C)NC(=O)[C@@H](NC(=O)[C@H](CCC(N)=O)NC(=O)[C@@H]2CCCN2C(=O)[C@@H]2CSCc3cccc(n3)CSC[C@H](NC(=O)[C@@H](N)Cc3c[nH]cn3)C(=O)N[C@@H](CCCNC(=N)N)C(=O)N[C@@H](CCCCN)C(=O)NCC(=O)N[C@@H](CC(C)C)C(=O)N[C@@H](CC(=O)O)C(=O)N[C@@H](CCCNC(=N)N)C(=O)N2)CSCc2cccc(n2)CSC[C@@H](C(=O)N[C@@H](CO)C(N)=O)NC1=O` (H-HCRKGLDRCPQCLYRICS-NH2; linker 2-9, 12-17 via Pyridine(2,6-diCH2)), for which the Ki amounted to 66 nM.

Take `CC(C)C[C@@H]1NC(=O)[C@@H](NC(=O)[C@@H]2CCCN2)CSCc2cccc(n2)CSC[C@@H](C(=O)N[C@@H](CO)C(=O)O)NC(=O)[C@H](CO)NC(=O)[C@H](CC(C)C)NC(=O)[C@H](Cc2ccccc2)NC1=O` (H-PCLFLSCS-OH; linker 2-7 via Pyridine(2,6-diCH2)): the Ki was 220 nM.

Take `CC(C)C[C@@H]1NC(=O)[C@H](Cc2ccc(O)cc2)NC(=O)[C@H](CC(C)C)NC(=O)[C@@H](NC(=O)[C@@H]2CCCN2)CSCc2cccc(n2)CSC[C@@H](C(=O)N[C@@H](CO)C(=O)O)NC(=O)[C@H](C)NC1=O` (H-PCLYLACS-OH; linker 2-7 via Pyridine(2,6-diCH2)): the inhibition constant (Ki) was 17.5 nM.

On to `CC(C)C[C@@H]1NC(=O)[C@H](Cc2ccc(O)cc2)NC(=O)[C@H](CC(C)C)NC(=O)[C@@H](NC(=O)[C@@H]2CCCN2)CSCC(=O)CSC[C@@H](C(=O)N[C@@H](CO)C(=O)O)NC(=O)[C@H](CCC(N)=O)NC(=O)[C@H](C)NC1=O` (H-PCLYLAQCS-OH; linker 2-8 via CH2COCH2), for which the Ki stood at 36 nM.

As for `CC(=O)[C@@H]1CCCN1C(=O)[C@@H]1CSCc2cccc(n2)CSC[C@H](NC(=O)[C@@H]2CCCN2)C(=O)N[C@@H](CC(C)C)C(=O)N[C@@H](Cc2ccc(O)cc2)C(=O)N[C@@H](CC(C)C)C(=O)N[C@@H](CO)C(=O)N1` (H-PCLYLSC-{Pyrrolidin1yl(2S-Ac)}; linker 2-7 via Pyridine(2,6-diCH2)), the Ki turned out to be 50 nM.

Turning to `CC(C)C[C@@H]1NC(=O)[C@@H](NC(=O)[C@@H]2CCCN2)CSCc2cccc(n2)CSC[C@@H](C(=O)N[C@@H](CO)C(=O)O)NC(=O)[C@H](CO)NC(=O)[C@H](CC(C)C)NC(=O)[C@H](Cc2ccc(O)cc2)NC1=O` (H-PCLYLSCS-OH; linker 2-7 via Pyridine(2,6-diCH2)), the Ki came out at 29.4 nM.

Consider `CC(C)C[C@@H]1NC(=O)[C@@H](NC(=O)[C@@H]2CCCN2)CSCc2cccc(n2)CSC[C@@H](C(=O)N[C@@H](CO)C(=O)O)NC(=O)[C@H]([C@@H](C)O)NC(=O)[C@H](CC(C)C)NC(=O)[C@H](Cc2ccc(O)cc2)NC1=O` (H-PCLYLTCS-OH; linker 2-7 via Pyridine(2,6-diCH2)), for which the inhibition constant (Ki) came to 52 nM.

On to `CSCC[C@@H]1NC(=O)[C@H](Cc2ccc(O)cc2)NC(=O)[C@H](CC(C)C)NC(=O)[C@@H](NC(=O)[C@@H]2CCCN2)CSCC(=O)CSC[C@@H](C(=O)N[C@@H](CO)C(=O)O)NC(=O)[C@H](CCCNC(=N)N)NC(=O)[C@H](C)NC1=O` (H-PCLYMARCS-OH; linker 2-8 via CH2COCH2), for which the Ki was found to be 10.1 nM.

Regarding `CC(C)C[C@@H]1NC(=O)[C@@H](NC(=O)[C@@H]2CCCN2)CSCc2cccc(n2)CSC[C@@H](C(=O)N[C@@H](CO)C(=O)O)NC(=O)[C@H](CO)NC(=O)[C@H](CCC(N)=O)NC(=O)[C@H](Cc2ccc(O)cc2)NC1=O` (H-PCLYQSCS-OH; linker 2-7 via Pyridine(2,6-diCH2)), the Ki is 440 nM.

Take `CC(C)C[C@@H]1NC(=O)[C@@H](NC(=O)[C@@H]2CCCN2)CSCc2cccc(n2)CSC[C@@H](C(=O)N[C@@H](CO)C(=O)O)NC(=O)[C@H](CO)NC(=O)[C@H](CCCNC(=N)N)NC(=O)[C@H](Cc2ccc(O)cc2)NC1=O` (H-PCLYRSCS-OH; linker 2-7 via Pyridine(2,6-diCH2)): the Ki came out at 53 nM.

In the case of `CC[C@H](C)[C@@H]1NC(=O)[C@H](Cc2ccc(O)cc2)NC(=O)[C@H](CC(C)C)NC(=O)[C@@H](NC(=O)[C@@H](N)CCC(N)=O)CSCc2cccc(n2)CSC[C@@H](C(=O)N2CCC[C@H]2C(=O)N[C@@H](CO)C(=O)N[C@@H](C)C(=O)N[C@@H](C)C(=O)N[C@@H](CCCCN)C(=O)N[C@H]2CSCc3cccc(n3)CSC[C@@H](C(=O)N[C@@H](CCC(N)=O)C(N)=O)NC(=O)CNC(=O)[C@H](CC(N)=O)NC(=O)[C@H](CC(=O)O)NC2=O)NC(=O)[C@H](C)NC1=O` (H-QCLYIACPSAAKCDNGCQ-NH2; linker 2-7, 13-17 via Pyridine(2,6-diCH2)), the Ki came to 32 nM.

On to `CSCC[C@@H]1NC(=O)[C@H](Cc2ccc(O)cc2)NC(=O)[C@H](CC(C)C)NC(=O)[C@@H](NC(=O)[C@@H](N)CCC(N)=O)CSCC(=O)CSC[C@@H](C(=O)N[C@@H](CO)C(=O)N2CCC[C@H]2C(=O)N[C@H](C(=O)N[C@H]2CSCC(=O)CSC[C@@H](C(=O)N[C@@H](CCC(N)=O)C(=O)O)NC(=O)[C@H](Cc3ccc(O)cc3)NC(=O)[C@H](CCC(N)=O)NC(=O)[C@H](CCC(N)=O)NC(=O)[C@@H]3CCCN3C2=O)C(C)C)NC(=O)[C@H](CCCNC(=N)N)NC(=O)[C@H](C)NC1=O` (H-QCLYMARCSPVCPQQYCQ-OH; linker 2-8, 12-17 via CH2COCH2), for which the Ki came to 9 nM.

Regarding `CSCC[C@H](NC(=O)[C@@H]1CSCc2cccc(n2)CSC[C@H](NC(=O)[C@@H](N)CCCNC(=N)N)C(=O)N[C@@H](CC(=O)O)C(=O)N[C@@H](CO)C(=O)N[C@@H](CO)C(=O)N[C@@H](CCC(N)=O)C(=O)N1)C(=O)N[C@@H](CCC(N)=O)C(=O)NCC(=O)N[C@@H](CCC(N)=O)C(=O)N[C@H]1CSCc2cccc(n2)CSC[C@@H](C(=O)N2CCC[C@H]2C(=O)O)NC(=O)[C@H](CO)NC(=O)[C@H](CCCNC(=N)N)NC(=O)[C@H](Cc2ccc(O)cc2)NC(=O)[C@H](CC(C)C)NC1=O` (H-RCDSSQCMQGQCLYRSCP-OH; linker 2-7, 12-17 via Pyridine(2,6-diCH2)), the Ki was determined as 94 nM.

Regarding `CC(C)C[C@@H]1NC(=O)[C@H](Cc2ccc(O)cc2)NC(=O)[C@H](CC(C)C)NC(=O)[C@@H](NC(=O)[C@@H]2CCCN2)CSCc2cccc(n2)CSC[C@@H](C(=O)O)NC(=O)[C@H](C)NC1=O` (mixture of isomers), the Ki came out at 19 nM.

Turning to `CC(C)C[C@@H]1NC(=O)[C@@H](NC(=O)C(N)CCC(N)=O)CSCc2cccc(n2)CSC[C@@H](C(=O)N[C@@H](CO)C(=O)O)NC(=O)[C@H](CO)NC(=O)[C@H](CC(C)C)NC(=O)[C@H](Cc2ccc(O)cc2)NC1=O` (single isomer, unassigned), the inhibitory constant (Ki) was found to be 12 nM.

As for `CC(C)C[C@@H]1NC(=O)[C@@H](NC(=O)C(N)CCCNC(=N)N)CSCc2cccc(n2)CSC[C@@H](C(=O)N[C@@H](CO)C(=O)O)NC(=O)[C@H](CO)NC(=O)[C@H](CC(C)C)NC(=O)[C@H](Cc2ccc(O)cc2)NC1=O` (single isomer, unassigned), the Ki came to 8.8 nM.

The assay is the same for the next values; noted with them: cho.
In the case of `CC(C)C[C@@H]1NC(=O)[C@@H](NC(=O)[C@@H]2CCCN2)CSCC(=O)CSC[C@@H](C(=O)N[C@@H](CO)C(=O)O)NC(=O)[C@H](CCCNC(=N)N)NC(=O)[C@H](CO)NC(=O)[C@H](CC(C)C)NC(=O)[C@H](Cc2ccc(O)cc2)NC1=O` (racemic), the inhibitory constant (Ki) was 90 nM.

For another assay, the target named is T1, Kallikrein-5 (Homo sapiens, UniProt Q9Y337).
T1 sequence (Q9Y337 whole entry): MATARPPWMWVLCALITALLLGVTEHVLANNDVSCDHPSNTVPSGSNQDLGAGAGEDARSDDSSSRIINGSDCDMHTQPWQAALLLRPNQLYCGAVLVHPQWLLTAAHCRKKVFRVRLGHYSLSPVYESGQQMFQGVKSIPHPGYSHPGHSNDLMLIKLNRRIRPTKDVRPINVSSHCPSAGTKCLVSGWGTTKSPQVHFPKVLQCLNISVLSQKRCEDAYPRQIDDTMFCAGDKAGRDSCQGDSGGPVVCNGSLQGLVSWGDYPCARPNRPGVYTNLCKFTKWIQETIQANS
The assay can be described thus: Inhibition of C-terminal poly-His-tagged human recombinant KLK5 (30 to 293 residues) transfected in CHO cells assessed as inhibition constant using Boc-VPR-AMC as fluorogenic substrate incubated for 30 mins by fluorescence plate reader assay.
Settings: not given
The format is cell-based.
Regarding `CC(C)C[C@@H]1NC(=O)[C@@H](NC(=O)[C@H](CCC(N)=O)NC(=O)[C@@H]2CCCN2C(=O)[C@H](CC(N)=O)NC(=O)[C@H](C)NC(=O)[C@@H]2CSCc3cccc(n3)CSC[C@H](NC(=O)[C@H](C)N)C(=O)N[C@@H]([C@@H](C)O)C(=O)N[C@@H](CCCNC(=N)N)C(=O)N[C@@H](CCC(=O)O)C(=O)N[C@@H](Cc3ccc(O)cc3)C(=O)N[C@@H](CC(N)=O)C(=O)N3CCC[C@H]3C(=O)N[C@@H](CCC(N)=O)C(=O)N2)CSCc2cccc(n2)CSC[C@@H](C(=O)N[C@@H](Cc2cnc[nH]2)C(=O)O)NC1=O`, the inhibitory constant (Ki) is 6.1 nM.
